Measured values from the supplement of paper PMC10307832.

Key:
Test in all cases: relative viability (nuclei count vs DMSO), 5 days (fraction); higher = more cells survive
Tipifarnib + Olaparib = compound: Cn1cncc1[C@@](N)(c1ccc(Cl)cc1)c1ccc2c(c1)c(-c1cccc(Cl)c1)cc(=O)n2C [Tipifarnib] + O=C(c1cc(Cc2n[nH]c(=O)c3ccccc23)ccc1F)N1CCN(C(=O)C2CC2)CC1 [Olaparib] (partner 8 µM)
How it was run: (§1)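 Medians of duplicate plates are given as relative viability. That measure is the nuclei count in treated wells divided by the count in vehicle wells. Counts were taken on 4× images of lung cancer cell lines in 1536-well plates, 5 days after pin-tool dosing the day after seeding with one drug alone or a fixed anchor-drug dose plus five library-drug doses (not always all listed) in √10 steps.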

Tipifarnib + Palbociclib = compound: Cn1cncc1[C@@](N)(c1ccc(Cl)cc1)c1ccc2c(c1)c(-c1cccc(Cl)c1)cc(=O)n2C [Tipifarnib] + CC(=O)c1c(C)c2cnc(Nc3ccc(N4CCNCC4)cn3)nc2n(C2CCCC2)c1=O [Palbociclib] (partner 0.5 µM)
How it was run: as §1

Tipifarnib + Alpelisib = compound: Cn1cncc1[C@@](N)(c1ccc(Cl)cc1)c1ccc2c(c1)c(-c1cccc(Cl)c1)cc(=O)n2C [Tipifarnib] + Cc1nc(NC(=O)N2CCC[C@H]2C(N)=O)sc1-c1ccnc(C(C)(C)C(F)(F)F)c1 [Alpelisib] (partner 2 µM)
How it was run: as §1

Tipifarnib + Pemetrexed = compound: Cn1cncc1[C@@](N)(c1ccc(Cl)cc1)c1ccc2c(c1)c(-c1cccc(Cl)c1)cc(=O)n2C [Tipifarnib] + Nc1nc2[nH]cc(CCc3ccc(C(=O)N[C@@H](CCC(=O)O)C(=O)O)cc3)c2c(=O)[nH]1 [Pemetrexed] (partner 0.2 µM)
How it was run: as §1

Cell Line | relative viability (Tipifarnib + Olaparib; first compound 0.01 µM) | relative viability (Tipifarnib + Olaparib; first compound 0.03162 µM) | relative viability (Tipifarnib + Olaparib; first compound 0.1 µM) | relative viability (Tipifarnib + Olaparib; first compound 0.3162 µM) | relative viability (Tipifarnib + Olaparib; first compound 1 µM) | relative viability (Tipifarnib + Palbociclib; first compound 0.01 µM) | relative viability (Tipifarnib + Palbociclib; first compound 0.03162 µM) | relative viability (Tipifarnib + Palbociclib; first compound 0.1 µM) | relative viability (Tipifarnib + Palbociclib; first compound 0.3162 µM) | relative viability (Tipifarnib + Palbociclib; first compound 1 µM) | relative viability (Tipifarnib + Alpelisib; first compound 0.01 µM) | relative viability (Tipifarnib + Alpelisib; first compound 0.03162 µM) | relative viability (Tipifarnib + Alpelisib; first compound 0.1 µM) | relative viability (Tipifarnib + Alpelisib; first compound 0.3162 µM) | relative viability (Tipifarnib + Alpelisib; first compound 1 µM) | relative viability (Tipifarnib + Pemetrexed; first compound 0.01 µM) | relative viability (Tipifarnib + Pemetrexed; first compound 0.03162 µM) | relative viability (Tipifarnib + Pemetrexed; first compound 0.1 µM) | relative viability (Tipifarnib + Pemetrexed; first compound 0.3162 µM) | relative viability (Tipifarnib + Pemetrexed; first compound 1 µM)
LOU-NH91 | 0.929 | 0.904 | 0.857 | 0.802 | 0.824 | 0.494 | 0.516 | 0.592 | 0.541 | 0.58 | 0.706 | 0.702 | 0.644 | 0.545 | 0.583 | 0.347 | 0.409 | 0.412 | 0.408 | 0.459
LU99A | 0.293 | 0.23 | 0.226 | 0.245 | 0.202 | 0.359 | 0.349 | 0.264 | 0.216 | 0.237 | 0.442 | 0.36 | 0.297 | 0.261 | 0.238 | 0.201 | 0.202 | 0.2 | 0.217 | 0.196
NCI-H522 | 0.633 | 0.677 | 0.621 | 0.67 | 0.542 | 0.9 | 1.2 | 1.07 | 0.898 | 0.923 | – | – | – | – | – | 1.08 | 1.2 | 0.886 | 0.973 | 0.839
NCI-H596 | 0.667 | 0.693 | 0.65 | 0.574 | 0.593 | – | – | – | – | – | 0.516 | 0.547 | 0.0161 | 0.436 | 0.356 | 0.488 | 0.492 | 0.482 | 0.528 | 0.514
NCI-H727 | 0.702 | 0.685 | 0.866 | 0.802 | 0.901 | 0.693 | 0.596 | 0.599 | 0.652 | 0.615 | 0.683 | 0.516 | 0.569 | 0.496 | 0.513 | – | – | – | – | –
NCI-H1299 | 0.984 | 0.932 | 0.973 | 0.791 | 0.783 | – | – | – | – | – | 1.04 | 1.04 | 0.971 | 0.973 | 0.941 | – | – | – | – | –
NCI-H1563 | – | – | – | – | – | – | – | – | – | – | 0.991 | 0.867 | 0.862 | 0.893 | 0.757 | 0.731 | 0.799 | 0.777 | 0.655 | 0.665
NCI-H1648 | 0.868 | 0.757 | 0.572 | 0.533 | 0.456 | 0.253 | 0.304 | 0.279 | 0.285 | 0.45 | – | – | – | – | – | 0.6 | 0.746 | 0.842 | 0.636 | 0.305
NCI-H1650 | 0.747 | 0.505 | 0.358 | 0.321 | 0.416 | 0.295 | 0.211 | 0.243 | 0.205 | 0.183 | – | – | – | – | – | 0.427 | 0.379 | 0.329 | 0.271 | 0.278
NCI-H1703 | 0.427 | 0.266 | 0.16 | 0.176 | 0.17 | – | – | – | – | – | 0.267 | 0.275 | 0.147 | 0.272 | 0.21 | – | – | – | – | –
NCI-H2342 | 0.536 | 0.463 | 0.425 | 0.371 | 0.396 | 0.535 | 0.493 | 0.555 | 0.499 | 0.488 | – | – | – | – | – | 0.906 | 0.776 | 0.71 | 0.64 | 0.509
